Assay results taken from patent publication US20160158376A1 (priority 2013, published 2016).
Read-outs that look alike come from different tables or passages of the source.

Columns and labels:
[1] = Solubility assay of the polyconjugate; assay type: physicochemical; conditions: water, room temperature (22˜25° C.), as active drug
[2] = tested on: Candida albicans; experiment: Pharmacodynamic assay, immunodepleted mice infected with Candida albicans; assay type: in vivo; conditions: for Number of animal death: mice (20 per group), tail vein, day 7
Text: Method: Mice whose immunity was depleted by conventional method (white cell count≦100) were infected with Candida albicans, and randomly divided into eight groups, 20 per group. Mice received the treatment outlined in the following table by injection through the tail vein. […] Continuously monitoring animal survival for seven days, and counting the number of dead mice on day 7.

[3] = mouse; Proffitt et al. 1991; cited from earlier work
[4] = rat, cited from earlier work
[5] = cited from earlier work

Compound | solubility (amount of the soluble active drug) [1] | Number of animal death ([2]; 1 mg/kg as amphotericin B) | Number of animal death ([2]; 2 mg/kg as amphotericin B) | 50% effective dose ([2]; mice infected with Candida albicans, survival at day 7, as amphotericin B) | LD50 [3] | LD50 ([4]; intravenous, Pfizer material safety data sheet) | LD50 ([4]; Proffitt et al. 1991) | solubility in water [5] | Number of animal death ([2]; 0.25 mg/kg as amphotericin B) | Number of animal death ([2]; 0.5 mg/kg as amphotericin B)
amphotericin B-hydroxyethyl starch polyconjugate [Preparation 22] | 0.026% | – | – | – | – | – | – | – | – | –
CC1O[C@@H](O[C@H]2/C=C/C=C/C=C/C=C/C=C/C=C/C=C/[C@H](C)[C@@H](O)[C@@H](C)[C@H](C)OC(=O)C[C@H](O)C[C@H](O)CC[C@@H](O)[C@H](O)C[C@H](O)C[C@]3(O)C[C@H](O)[C@@H](C(=O)O)[C@H](C2)O3)C(O)C(N)[C@@H]1O (stereo partly drawn) [amphotericin B] | – | 10 dead | 3 dead | about 1 mg/kg | 2.3 mg/kg | 1.6 mg/kg | 1.6 mg/kg | insoluble | – | –
poly-aspartic acid-amphotericin B polyconjugate [Preparation 1] | – | 0 dead | 0 dead | – | – | – | – | – | 5 dead | 0 dead
